The numbers were not newly measured in patent US20060257347A1, “Self-preservation system” (priority 2005, published 2006), which cites them from elsewhere.

Common to all, as to details: hinokitiol alone; known to be
The test system of series [1] is Escherichia coli (ATCC No. 8739).
Series [2] has as its system Pseudomonas aeruginosa (ATCC No. 9027).
Series [3] relates to Staphylococcus aureus (ATCC No. 6538).
Series [4] has as its system Candida albicans (ATCC No. 10231).
The test system of series [5] is Aspergillus niger (ATCC No. 16404).

The structures appear in SMILES notation. In brackets after ≈: the same amount, converted by molar mass.

For `CC(C)c1cccc(=O)c(O)c1` [hinokitiol, Hinokitiol], in series [1], the “MIC (Minimum Inhibitory Concentration) Escherichia coli” value is 40.0 mg/mL (≈ 244 mM). Further, the “MIC (Minimum Inhibitory Concentration) Pseudomonas aeruginosa” value in series [2] was 50.0 mg/mL (≈ 304 mM). Also, the “MIC (Minimum Inhibitory Concentration) Staphylococcus aureus” value in series [3] is 40.0 mg/mL (≈ 244 mM). In addition, in series [4], the “MIC (Minimum Inhibitory Concentration) Candida albicans” value is 12.5 mg/mL (≈ 76.1 mM). In series [5], the “MIC (Minimum Inhibitory Concentration) Aspergillus niger” value is 40.0 mg/mL (≈ 244 mM).
